Source: patent US11998600B2, “Enhancing the therapeutic activity of an immune checkpoint inhibitor” (MaineHealth, priority 2015, dated 2024)

How the values were obtained:
P38MAPK = P38MAPK phosphorylation in HRMVEC attached to collagen peptides, Western blot; assay type: cell-based, human; details: cells attached to immobilized peptide; FIG. 6E
Procedure: (§1) Endothelial cells (HUVECs or HRMVECs) were incubated in serum free media with 1 mM MgCl2, 0.2 mM MnCl2 in the presence of a Src inhibitor, PP2, (10 μM) a P38MAPK inhibitor, SB202190 (10 μM) or vehicle only (DMSO) for 10 min at 37° C. Treated cells were then seeded on to immobilized P-1 and P-2 and lysates were collected at 15 min.
Whole cell and CAM tissue lysates were collected in RIPA buffer supplemented with 1× protease inhibitor and 1× phosphatase inhibitor and were run on polyacrylamide gels using denaturing conditions. Prior to loading the gels, 6× sample buffer was added to each of the lysates (final concentration 1×) and boiled for five minutes. Twenty to 50 μg of total protein were loaded into each lane. […] Gels were run at 60 volts (v) until the dye front passed through the stacking gel, and then the voltage was increased to 100V for the remainder of the separation. Precision Plus protein standards (Bio-Rad) were used to visualize migration. Protein was transferred to nitrocellulose membranes using a wet tank system and blocked for 1 h using 10% non-fat dried milk in tris-buffered saline with 0.01% Tween-20 (TBS-T). […] Membranes were washed 3 times in TBS-T for five minutes. Blots were then incubated with HRP conjugated secondary antibodies (1:15000) in 1% non-fat milk in TBS-T for 1 h. […] Western blot bands were quantified using Image J software based on pixel intensity.

[1] = tested on: chick chorioallantoic membrane (CAM); assay: Chick CAM angiogenesis assay, induction by RGD collagen peptides; assay type: in vivo; details: chick CAM
Procedure: The chick chorioallantoic membrane (CAM) assays were carried out with some modifications (19). For all experiments CAMs of 10-day-old chick embryos obtained from Charles River (North Franklin, CT) were separated from the shell membrane. Filter discs either non-treated (inflammation assays) pretreated (angiogenesis assays) with cortisone acetate (3.0 mg/ml) containing RPMI only or FGF-2 (40 ng). CAMs were either non-treated or treated topically with Mab XL313, XL166 or a non-specific control antibody (10 μg/embryo every 24 h for three consecutive treatments). […] At the end of the incubation period the embryos were sacrificed and the CAM tissues were analyzed. Angiogenesis was quantified by counting the number of angiogenic branching blood vessels within the area of the filter disc. The angiogenic index was determined by subtracting the mean number of blood vessel branch points from untreated CAMs from each experimental condition. Eight to twelve embryos were used per condition and experiments were repeated at least three times.
To examine this possibility, the effects of the RGDKGE (SEQ ID NO. 1) containing collagen peptide on angiogenesis and inflammation in the chick CAM were assessed.

β3-integrin = β3-integrin phosphorylation in endothelial cells attached to collagen peptides, Western blot; assay type: cell-based, human; details: HUVEC, absence of growth factors; FIG. 7C
Procedure: as §1
Whole cell and CAM tissue lysates were collected in RIPA buffer supplemented with 1× protease inhibitor and 1× phosphatase inhibitor and were run on polyacrylamide gels using denaturing conditions. Prior to loading the gels, 6× sample buffer was added to each of the lysates (final concentration 1×) and boiled for five minutes. Twenty to 50 μg of total protein were loaded into each lane. For detection of proteins larger than 50 kD, 10% gels were used; for proteins smaller than 50 kD 15% gels were used. […] Western blot bands were quantified using Image J software based on pixel intensity.
Because both RGD containing peptides bind αvβ3 coupled with the differential effect of these peptides on angiogenesis and inflammation, it was determined whether the RGD peptides differentially altered αvβ3-mediated signaling. […] Therefore, the differential phosphorylation of these protein kinases following the early mechanical-mediated interactions with the RGD containing collagen peptides was assessed. […]

Sequence: QGPRGDKGE [Mab P-2]
- phosphorylation of P38MAPK in HRMVEC, P-2 as compared to P-1 (P38MAPK): enhanced phosphorylation of P38MAPK
- dose dependent induction of CAM angiogenesis ([1]; FIG. 5B): dose dependently enhanced angiogenesis
- dose of maximum induction of angiogenesis ([1]; FIG. 5B): 100 ng/CAM
- induction of CAM angiogenesis as compared to no treatment ([1]; peptides 100 ng/ml, FIG. 5C): significantly (P>0.05) induced angiogenesis
- increase of β3 phosphorylation, P-2 as compared to P-1 (β3-integrin): over 3 fold
